Test results taken from US12285407B2, “Bis-indolylmethane derivatives and uses thereof” (The University of The West Indies, priority 2018, dated 2025).
Where two headings read alike, the source gives them in different places.

Tests used:
Candida albicans = assay: Checkerboard synergy (FICI) of antibiotics with SP-BIM; set-up: MIC SP-BIM 13 only / MIC in combination: Antibiotic / MIC antibiotic only: unit not given beside the values
Staphylococcus aureus = assay: as above; assay type: cell-based; conditions: Staphylococcus aureus, Staphylococcus aureus; for MIC: 24 h, antibiotic alone, read-out: MIC antibiotic only
Streptococcus pneumoniae = assay: as above; assay type: cell-based; conditions: for MIC: 24 h, antibiotic alone, read-out: MIC antibiotic only
Bacillus cereus [1] = assay: as above; assay type: cell-based; conditions: for MIC: 24 h, antibiotic alone, read-out: MIC antibiotic only
Escherichia coli = assay: as above; set-up: MIC SP-BIM 13 only / MIC in combination: Antibiotic: unit not given beside the values; conditions: for MIC: 24 h
Pseudomonas aeruginosa = assay: Adjuvant broth microdilution (antibiotic MIC with SP-BIM at 50 μg/mL); assay type: cell-based; conditions: antibiotic alone
Bacillus cereus [2] = assay: as above; assay type: cell-based; conditions: antibiotic alone, Table 9
Escherichia coli O157:H7 = assay type: cell-based; conditions: antibiotic alone, no SP-BIM
MRSA HS 10132 = assay: Systemic lethal MRSA infection in mice (survival); assay type: in vivo; conditions: ampicillin only, 5 days
Enterococcus faecium = assay: Checkerboard synergy (FICI) of antibiotics with SP-BIM; assay type: cell-based; conditions: Enterococcus faecium, Enterococcus faecium; for MIC: 24 h, antibiotic alone, read-out: MIC antibiotic only
Enterobacter cloacae = assay: Adjuvant broth microdilution (antibiotic MIC with SP-BIM at 50 μg/mL); assay type: cell-based; conditions: antibiotic alone
[3] = tested on: clinical antibiotic resistant isolates of MRSA; assay: Checkerboard resistance breaking by SP-BIM 13; assay type: cell-based, Staphylococcus aureus; conditions: MRSA strain 1594
[4] = MIC of the antibiotic in combination with SP-BIM 13
[5] = SP-BIM 13 in combination with the labelled antibiotic
[6] = SP-BIM 9 in combination with the labelled antibiotic
[7] = antibiotic in combination with SP-BIM 9
[8] = antibiotic in combination with SP-BIM 13
[9] = Streptococcus pneumonia (title: Streptococcus pyogenes), antibiotic + SP-BIM 9
[10] = Streptococcus pneumoniae, antibiotic + SP-BIM 13

## CC1(C)S[C@@H]2[C@H](NC(=O)[C@H](N)c3ccccc3)C(=O)N2[C@H]1C(=O)O [Ampicillin, ampicillin]
Candida albicans; 24 h, read-out: MIC antibiotic only
  MIC: > 250 µg/mL
Candida albicans; [4]
  MIC in combination: Antibiotic: 0.5
Candida albicans; [5]
  FIC of SP-BIM 13: 0.5
Candida albicans; antibiotic + SP-BIM 13
  Interpretation: Synergy (Synergy: FICI≤0.5)
  Σ FIC: <0.5
Candida albicans; combination with SP-BIM 13
  FIC of antibiotic: 0.0
Staphylococcus aureus; SP-BIM 9 checkerboard
  MIC: 0.5 µg/mL
Staphylococcus aureus; SP-BIM 13 checkerboard
  MIC: 0.5 µg/mL
Staphylococcus aureus; [6]
  FIC of SP-BIM 9: 0.50
Staphylococcus aureus; [5]
  FIC of SP-BIM 13: 0.0
Staphylococcus aureus; antibiotic + SP-BIM 9
  Interpretation: Additive (Additive: FICI>0.5-1.0)
  Σ FIC: <0.90
Staphylococcus aureus; antibiotic + SP-BIM 13
  Interpretation: Additive (Additive: FICI>0.5-1.0)
  Σ FIC: 1.0
Staphylococcus aureus; [7]
  MIC in combination, Antibiotic: 0.2 µg/mL
Staphylococcus aureus; [8]
  MIC in combination, Antibiotic: 0.5 µg/mL
Staphylococcus aureus; in combination with SP-BIM 9
  FIC of antibiotic: 0.40
Staphylococcus aureus; in combination with SP-BIM 13
  FIC of antibiotic: 1.0
Streptococcus pneumoniae; Streptococcus pneumonia (title: Streptococcus pyogenes), SP-BIM 9 in combination with the labelled antibiotic
  FIC of SP-BIM 9: 0.06
Streptococcus pneumoniae; [9]
  Interpretation: Synergy (Synergy: FICI≤0.5)
  Σ FIC: <0.06
Streptococcus pneumoniae; Streptococcus pneumonia (title: Streptococcus pyogenes), antibiotic in combination with SP-BIM 9
  MIC in combination, Antibiotic: 0.1 µg/mL
Streptococcus pneumoniae; Streptococcus pneumonia (title: Streptococcus pyogenes), in combination with SP-BIM 9
  FIC of antibiotic: 0.00
Streptococcus pneumoniae; Streptococcus pneumoniae, Streptococcus pneumonia (title: Streptococcus pyogenes), SP-BIM 9 checkerboard
  MIC: > 250 µg/mL
Streptococcus pneumoniae; Streptococcus pneumoniae, Streptococcus pneumoniae, SP-BIM 13 checkerboard
  MIC: 250 µg/mL
Streptococcus pneumoniae; Streptococcus pneumoniae, SP-BIM 13 in combination with the labelled antibiotic
  FIC of SP-BIM 13: 0.3
Streptococcus pneumoniae; [10]
  Interpretation: Synergy (Synergy: FICI≤0.5)
  Σ FIC: <0.3
Streptococcus pneumoniae; Streptococcus pneumoniae, antibiotic in combination with SP-BIM 13
  MIC in combination, Antibiotic: 2 µg/mL
Streptococcus pneumoniae; Streptococcus pneumoniae, in combination with SP-BIM 13
  FIC of antibiotic: 0.0
Bacillus cereus [1]; SP-BIM 9 checkerboard
  MIC: 8 µg/mL
Bacillus cereus [1]; SP-BIM 13 checkerboard
  MIC: 8 µg/mL
Bacillus cereus [1]; [5]
  FIC of SP-BIM 13: 0.3
Bacillus cereus [1]; antibiotic + SP-BIM 13
  Interpretation: Synergy (Synergy: FICI≤0.5)
  Σ FIC: 0.3
Bacillus cereus [1]; [8]
  MIC in combination, Antibiotic: 0.5 µg/mL
Bacillus cereus [1]; in combination with SP-BIM 13
  FIC of antibiotic: 0.06
Escherichia coli; read-out: MIC antibiotic only, Escherichia coli, antibiotic alone
  MIC: > 250 µg/mL
Escherichia coli; read-out: MIC antibiotic only, Escherichia coli, antibiotic alone, SP-BIM 9 checkerboard
  MIC: 250 µg/mL
Escherichia coli; [4]
  MIC in combination: Antibiotic: 4
Escherichia coli; [6]
  FIC of SP-BIM 9: 0.064
Escherichia coli; [5]
  FIC of SP-BIM 13: 0.5
Escherichia coli; antibiotic + SP-BIM 9
  Interpretation: Synergy (Synergy: FICI≤0.5)
  Σ FIC: <0.1
Escherichia coli; antibiotic + SP-BIM 13
  Interpretation: Synergy (Synergy: FICI≤0.5)
  Σ FIC: <0.5
Escherichia coli; [7]
  MIC in combination, Antibiotic: 4 µg/mL
Escherichia coli; combination with SP-BIM 13
  FIC of antibiotic: 0.0
Escherichia coli; in combination with SP-BIM 9
  FIC of antibiotic: 0.016
Pseudomonas aeruginosa
  MIC of antibiotic, No Compound: >250 µg/mL
Bacillus cereus [2]
  MIC of antibiotic, No Compound: >250 µg/mL
Escherichia coli O157:H7
  MIC of antibiotic, No Compound: 8 µg/mL
MRSA HS 10132
  mortality: 100%
Enterococcus faecium; SP-BIM 9 checkerboard
  MIC: 250 µg/mL
Enterococcus faecium; SP-BIM 13 checkerboard
  MIC: 250 µg/mL
Enterococcus faecium; SP-BIM 9 concentration in combination with the labelled antibiotic
  MIC in combination, SP-BIM 9: 64 µg/mL
Enterococcus faecium; [6]
  FIC of SP-BIM 9: 0.3
Enterococcus faecium; [5]
  FIC of SP-BIM 13: 0.5
Enterococcus faecium; antibiotic + SP-BIM 9
  Interpretation: Synergy (Synergy: FICI≤0.5)
  Σ FIC: ≤0.3
Enterococcus faecium; antibiotic + SP-BIM 13
  Interpretation: Additive (Additive: FICI>0.5-1.0)
  Σ FIC: <0.6
Enterococcus faecium; [7]
  MIC in combination, Antibiotic: 0.1 µg/mL
Enterococcus faecium; [8]
  MIC in combination, Antibiotic: 16 µg/mL
Enterococcus faecium; in combination with SP-BIM 9
  FIC of antibiotic: 0.0
Enterococcus faecium; in combination with SP-BIM 13
  FIC of antibiotic: 0.1
Enterobacter cloacae
  MIC of antibiotic, No Compound: >250 µg/mL
[3]; SP-BIM 13 with the labelled antibiotic
  FIC compound: 0.128
[3]; antibiotic + SP-BIM 13
  Interpretation: Synergy (Synergy: FICI≤0.5)
  Σ FIC: <0.14
[3]; antibiotic alone
  MIC of antibiotic only: 250 µg/mL
[3]; combination with SP-BIM 13
  FIC antibiotic: 0.016
